In patent US12162863B2, “Modulators of stimulator of interferon genes (STING)” (RYVU THERAPEUTICS S.A., priority 2018, dated 2024) one finds EC50 and ΔTm data, which are given here for eleven compounds.

Broadly, the EC50 is the midpoint of the concentration-response curve. The term ΔTm denotes the shift of the melting midpoint relative to a reference.

The subject of assay [1] is interferon regulatory factor (IRF) pathway in THP-1 dual cells. Put plainly: THP-1 Dual Reporter Assay, IRF pathway (luciferase reporter). The class given is cell-based. As to conditions: Homo sapiens, THP1-Dual, 18 h of stimulation, luminescence. The protocol: (§1) THP-1 Dual Reporter Assay
(§2) Compounds of the present invention were tested for their activity using THP-1 dual cells (Invivogen, cat no. thpd-nfis) allowing for simultaneous study of NF-κB pathway and the interferon regulatory factor (IRF) pathway. THP-1 dual cells contain luciferase reporter gene under the control of an ISG54 (interferon-stimulated gene) minimal promoter in conjunction with five interferon-stimulated response elements and a secreted embryonic alkaline phosphatase reporter gene under the control an IFN (interferon)-β minimal promoter fused to five copies of the NF-κB consensus transcriptional response element with three copies of the c-Rel binding site. Following 18 h of stimulation with STING agonist, medium was collected and transferred onto fresh cell culture plate. To verify activity of the IRF pathway, luminescence activity was measured with standard laboratory plate reader immediately after addition 10 μl of the medium to 50 μl of luminescence reagent (Invivogen, cat. No. rep-qlc2). To verify activity of NF-κB pathway, 20 μl of the medium was mixed with 80 μl of a detection medium (Invivogen, cat. No. rep-qb2) and incubated for 2 hours at 37° C. in a humidified atmosphere containing 5% CO2. Next, absorbance at 630 nm was recorded using standard laboratory plate reader.

Assay [2] deals with human STING (Homo sapiens, UniProt Q86WV6). Put plainly: Fluorescence Thermal Shift assay. The class given is binding. The note with it: 50 μM compound; STING 0.1 mg/ml; 20 minutes preincubation; read-out: [hSTING] FTS, ΔTm [° C.] for 50 μM. As for the experimental part:
Fluorescence Thermal Shift Assay Compounds of the present invention were tested for binding to human STING in Fluorescence Thermal Shift assay. STING was preincubated with the compounds for 20 minutes in 50 mM Hepes, 150 mM NaCl, pH 7.5 in 16 μl volume, following by adding 4 μl of SyproOrange dye dilution (ThermoFisher, cat no. S-6651). Final STING concentration was 0.1 mg/ml. Thermal unfolding was performed in Real-Time PCR QuantStudio 6 Flex System (Applied Biosystems), from 25 to 99° C., with continuous ramp mode and ramp rate 0.033° C./s. The data were analyzed using Protein Thermal Shift Software (ThermoFisher). […] For example, ΔTm [° C.] of FTS assay for following examples are: […]

Assay [3] has as its system NF-κB pathway in THP-1 dual cells. The assay can be described thus: THP-1 Dual Reporter Assay, NF-κB pathway (SEAP reporter). The note with it: Homo sapiens, THP1-Dual, 18 h of stimulation, absorbance at 630 nm, read-out: THP1 Dual EC50 (μM) NFkB. The class given is cell-based. As for the experimental part:
as §1, §2

Sequence of human STING (Q86WV6 whole entry H232R): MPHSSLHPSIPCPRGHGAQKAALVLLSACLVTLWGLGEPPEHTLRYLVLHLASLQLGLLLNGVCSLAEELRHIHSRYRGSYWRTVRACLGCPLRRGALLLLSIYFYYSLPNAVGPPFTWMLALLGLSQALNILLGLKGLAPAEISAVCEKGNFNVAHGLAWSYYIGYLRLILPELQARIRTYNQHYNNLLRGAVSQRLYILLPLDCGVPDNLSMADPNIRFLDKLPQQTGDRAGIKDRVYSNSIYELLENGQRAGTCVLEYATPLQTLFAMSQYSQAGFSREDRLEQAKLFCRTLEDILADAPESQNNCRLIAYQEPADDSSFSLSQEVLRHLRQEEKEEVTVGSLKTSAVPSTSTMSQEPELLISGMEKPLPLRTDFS

On to `O=c1c(CN(CCCc2ccncc2)Cc2ccncc2)coc2ccccc12` [Example 21, 3-({[(pyridin-4-yl)methyl][3-(pyridin-4-yl)propyl]amino}methyl)-4H-chromen-4-one], for which the values for the EC50 in assay [1] and in assay [3] were no more than 10 µM and 10 to 20 µM, respectively. Further, the ΔTm at 50 µM in assay [2] is greater than 2.5 °C.
For `O=c1c(CN(CCCn2ccnn2)Cc2ccncc2)coc2cc(Br)ccc12` [Example 22, 7-bromo-3-{[(pyridin-4-ylmethyl)[3-(1H1,2,3-triazol-1-yl)propyl]amino]methyl}-4H-chromen-4-one] the same measures were 10 to 20 µM, no less than 20 µM and less than 2.5 °C.
For `O=c1c(CN(CCCn2ccnc2)Cc2ccncc2)coc2cc(-c3ccc(F)cc3)ccc12` [Example 23, 7-(4-fluorophenyl)-3-({[3-(1H-imidazol-1-yl)propyl](pyridin-4-ylmethyl)amino}methyl)-4H-chromen-4-one] the same measures were no less than 20 µM, no less than 20 µM and greater than 2.5 °C.
Take `Cc1cc(CN(CCCn2ccnc2)Cc2coc3ccccc3c2=O)ccn1` [Example 25, 3-({[3-(1H-imidazol-1-yl)propyl][(2-methylpyridin-4-yl)methyl]amino}methyl)-4H-chromen-4-one]: the results for the EC50 in assay [1] and in assay [3] were 10 to 20 µM and no less than 20 µM, respectively. For the same compound, the thermal shift (ΔTm) at 50 µM in assay [2] was less than 2.5 °C.
On to `Cc1ccc2c(=O)c(CN(CCCn3ccnc3)Cc3ccnc(F)c3)coc2c1C` [Example 26, 3-({[(2-fluoropyridin-4-yl)methyl][3-(1H-imidazol-1-yl)propyl]amino}methyl)-7,8-dimethyl-4H-chromen-4-one], for which the EC50 in assay [1] and in assay [3] was no less than 20 µM in each case. For the same compound, in assay [2], the ΔTm at 50 µM was less than 2.5 °C.
In the case of `COc1cc(CN(CCCn2ccnc2)Cc2coc3cc(O)ccc3c2=O)ccn1` [Example 27, 7-hydroxy-3-({[3-(1H-imidazol-1-yl)propyl][(2-methoxypyridin-4-yl)methyl]amino}methyl)-4H-chromen-4-one], the values for the EC50 in assay [1] and in assay [3] were 10 to 20 µM and no less than 20 µM, respectively. Besides, the ΔTm at 50 µM in assay [2] is greater than 2.5 °C.
In the case of `O=c1c(CN(CCCc2cccnc2)Cc2ccncc2)coc2c1ccc1ccccc12` [Example 28, 3-({[3-(pyridin-3-yl)propyl](pyridin-4-ylmethyl)amino}methyl)-4H-benzo[h]chromen-4-one], the EC50 in assay [1] and in assay [3] was no more than 10 µM throughout. Further, the ΔTm at 50 µM in assay [2] was greater than 2.5 °C.
For `O=c1c(CN(CCCn2ccnc2)Cc2ccncc2)coc2ccc(F)cc12` [Example 29, 6-fluoro-3-({[3-(1H-imidazol-1-yl)propyl][(pyridin-4-yl)methyl]amino}methyl)-4H-chromen-4-one], the concentration for a half-maximal effect (EC50) in assay [1] was no more than 10 µM; in assay [3], 10 to 20 µM. The ΔTm at 50 µM in assay [2] was greater than 2.5 °C.
Taken in the same sequence, the figures for `COc1cc(CN(CCCn2ccnc2)Cc2coc3c(ccc4ccccc43)c2=O)ccn1` [Example 30, 3-({[3-(1H-imidazol-1-yl)propyl][(2-methoxypyridin-4-yl)methyl]amino}methyl)-4H-benzo[h]chromen-4-one] were no more than 10 µM, no more than 10 µM and greater than 2.5 °C.
As for `Cn1cc(CN(CCCn2ccnc2)Cc2ccncc2)c(=O)c2ccccc21` [Example 31, 3-({[3-(1H-imidazol-1-yl)propyl][(pyridin-4-yl)methyl]amino}methyl)-1-methyl-1,4-dihydroquinolin-4-one], the 50% effective concentration (EC50) in assay [1] and in assay [3] was no less than 20 µM each time. Besides, in assay [2], the shift in melting temperature (ΔTm) at 50 µM is greater than 2.5 °C.
With `COc1ccc(-c2ccc3c(=O)c(CN(CCCn4ccnc4)Cc4ccncc4)coc3c2)cc1` [Example 32, 3-({[3-(1H-imidazol-1-yl)propyl](pyridin-4-ylmethyl)amino}methyl)-7-(4-methoxyphenyl)-4H-chromen-4-one], the EC50 in assay [1] is 10 to 20 µM; in assay [3] it was no less than 20 µM. Further, in assay [2], the ΔTm at 50 µM was greater than 2.5 °C.
